Source: patent US11840686B2, “Modulation of prekallikrein (PKK) expression” (Ionis Pharmaceuticals, Inc., priority 2013, dated 2023)
Strand notation (5' to 3'): a small letter for the sugar, then the base; units joined by * are phosphorothioate-linked, units joined directly phosphodiester-linked; [ ] holds rarer units or linkages, { } end groups; capitals alone tell only the bases. e = 2'-O-(2-methoxyethyl) (MOE); k = constrained ethyl (cEt); [5mC] = 5-methylcytosine; d = 2'-deoxy (DNA)

Tested on: human PKK mRNA
Test: Antisense inhibition of human PKK mRNA in HepaRG cells, 1,000 nM, MOE/deoxy/cEt oligonucleotides (Example 3)
Type: cell-based
How it was run: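 HepaRG cells at 20,000 per well electroporated with 1,000 nM 16-mer MOE/cEt/deoxy gapmers (phosphorothioate, 5-methylcytosine). After about 24 h, PKK mRNA measured by qRT-PCR with primer probe set RTS3454, normalized to RIBOGREEN total RNA. Reported as percent inhibition versus untreated cells.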

[1] = HepaRG cells, electroporation with 1,000 nM antisense oligonucleotide, approximately 24 hours, primer probe set RTS3454, relative to untreated control cells, experiment of Table 24
[2] = Table 27, HepaRG cells, 1,000 nM antisense oligonucleotide, human PKK mRNA
[3] = Table 19, HepaRG cells, electroporation with 1,000 nM antisense oligonucleotide, approximately 24 hours, PKK mRNA by RT-PCR (RTS3454), relative to untreated control cells
[4] = HepaRG cells, electroporation with 1,000 nM antisense oligonucleotide, approx. 24 hours, PKK mRNA by RT-PCR (RTS3454), relative to untreated control cells, Table 26 experiment
[5] = Table 21 experiment, HepaRG cells, electroporation with 1,000 nM antisense oligonucleotide, approx. 24 hours, PKK mRNA by RT-PCR (RTS3454), relative to untreated control cells
[6] = Table 28, HepaRG cells, 1,000 nM antisense oligonucleotide, human PKK mRNA
[7] = Table 30, human PKK mRNA, HepaRG cells, 1,000 nM antisense oligonucleotide
[8] = HepaRG cells, electroporation with 1,000 nM antisense oligonucleotide, approx. 24 hours, PKK mRNA by RT-PCR (RTS3454), relative to untreated control cells, Table 25 experiment
[9] = HepaRG cells, 1,000 nM antisense oligonucleotide, Table 29
[10] = PKK mRNA, HepaRG cells, 1,000 nM antisense oligonucleotide, Table 31

**Q.** How did the “% inhibition” value [1] turn out when “548003 (eT*eA*kA*d[5mC]*d[5mC]*dA*dG*dA*dG*d[5mC]*dT*d[5mC]*d[5mC]*k[5mC]*kT*eT; antisense) [compound 548003]” was run?
**A.** 66%

**Q.** Which “% inhibition” value [2] does the source give for “548311 (eT*eG*kA*d[5mC]*d[5mC]*dA*d[5mC]*d[5mC]*dT*d[5mC]*dT*d[5mC]*dG*kG*kG*eT; antisense) [compound 548311]” here?
**A.** 10%

**Q.** For “548135 (eT*e[5mC]*kA*dG*dA*dA*dT*dT*dT*dG*dA*d[5mC]*dT*kT*kG*eA; antisense) [compound 548135]”, which “% inhibition” value [3] is on record?
**A.** 46%

**Q.** “548297 (eA*e[5mC]*kT*d[5mC]*dT*d[5mC]*dA*dA*dG*d[5mC]*dT*d[5mC]*d[5mC]*kA*k[5mC]*eG; antisense) [compound 548297]” was tested. Which “% inhibition” value [4] did it give?
**A.** 32%

**Q.** “548133 (eA*eG*kA*dA*dT*dT*dT*dG*dA*d[5mC]*dT*dT*dG*kA*kA*e[5mC]; antisense) [compound 548133]” was tested. Which “% inhibition” value [3] did it give?
**A.** 23%

**Q.** Which “% inhibition” value [4] does the source give for “548279 (antisense e[5mC]*eA*k[5mC]*d[5mC]*dT*dA*dG*dA*dA*d[5mC]*dT*dA*dT*k[5mC]*k[5mC]*eA) [compound 548279]” here?
**A.** 39%

**Q.** Which “% inhibition” value [5] does the source give for “547787 (antisense eA*eA*kG*dT*dT*dG*d[5mC]*dT*dT*dG*d[5mC]*dT*dT*kG*kA*eA) [compound 547787]” here?
**A.** 22%

**Q.** “548484 (e[5mC]*e[5mC]*k[5mC]*d[5mC]*dG*dG*dA*dG*d[5mC]*dA*d[5mC]*d[5mC]*dT*kT*k[5mC]*eA; antisense) [compound 548484]” was tested. Which “% inhibition” value [6] did it give?
**A.** 41%

**Q.** Which “% inhibition” value [5] does the source give for “547812 (eG*eT*kG*d[5mC]*dA*d[5mC]*d[5mC]*dT*d[5mC]*dA*dT*d[5mC]*dT*kG*kG*e[5mC]; antisense) [compound 547812]” here?
**A.** 51%

**Q.** For “548060 (e[5mC]*eT*kT*dG*dT*dG*dT*d[5mC]*dA*d[5mC]*d[5mC]*dT*dT*kT*kG*eG; antisense) [compound 548060]”, which “% inhibition” value [1] is on record?
**A.** 76%

**Q.** How did the “% inhibition” value [7] turn out when “548427 (antisense e[5mC]*eT*kA*dT*dA*dA*d[5mC]*dA*dG*dT*dA*dT*d[5mC]*kA*k[5mC]*eT) [compound 548427]” was run?
**A.** 24%

**Q.** With “548449 (eA*eT*k[5mC]*dA*d[5mC]*dT*dG*dT*d[5mC]*d[5mC]*dT*dA*dT*kG*kT*e[5mC]; antisense) [compound 548449]” as the substance, how does the “% inhibition” value [7] read?
**A.** 62%

**Q.** With “548264 (antisense e[5mC]*eA*kG*dT*d[5mC]*d[5mC]*dA*dA*dA*dA*dA*dT*d[5mC]*k[5mC]*k[5mC]*eT) [compound 548264]” as the substance, how does the “% inhibition” value [4] read?
**A.** 60%

**Q.** For “548306 (eA*eT*kG*dT*dG*dA*d[5mC]*dA*dG*dT*d[5mC]*dA*dG*kG*kG*eA; antisense) [compound 548306]”, which “% inhibition” value [2] is on record?
**A.** 8%

**Q.** With “548007 (e[5mC]*eT*k[5mC]*dA*dA*dA*dG*dA*dG*dT*dA*dA*d[5mC]*k[5mC]*kA*eG; antisense) [compound 548007]” as the substance, how does the “% inhibition” value [1] read?
**A.** 70%

**Q.** For “548492 (antisense eG*e[5mC]*k[5mC]*d[5mC]*dA*dA*dT*dG*dT*d[5mC]*d[5mC]*dT*dA*kA*k[5mC]*e[5mC]) [compound 548492]”, which “% inhibition” value [6] is on record?
**A.** 51%

**Q.** “548192 (e[5mC]*e[5mC]*kT*dG*dT*d[5mC]*dA*dA*d[5mC]*dA*dT*dA*dT*kT*k[5mC]*e[5mC]; antisense) [compound 548192]” was tested. Which “% inhibition” value [8] did it give?
**A.** 65%

**Q.** For “548518 (antisense e[5mC]*eA*k[5mC]*dA*d[5mC]*dT*dT*dA*d[5mC]*d[5mC]*d[5mC]*d[5mC]*dG*k[5mC]*kT*e[5mC]) [compound 548518]”, which “% inhibition” value [6] is on record?
**A.** 12%

**Q.** How did the “% inhibition” value [9] turn out when “548545 (antisense e[5mC]*eT*k[5mC]*dT*dT*d[5mC]*dG*d[5mC]*dA*dT*dG*dG*dA*k[5mC]*kA*e[5mC]) [compound 548545]” was run?
**A.** 46%

**Q.** Which “% inhibition” value [7] does the source give for “548457 (e[5mC]*eT*kA*dT*dA*dA*d[5mC]*dA*dG*dT*dA*dT*d[5mC]*kA*k[5mC]*e[5mC]; antisense) [compound 548457]” here?
**A.** 13%

**Q.** With “548644 (antisense eA*eA*k[5mC]*dT*dG*dG*dG*d[5mC]*dA*dG*dT*d[5mC]*d[5mC]*kT*kT*e[5mC]) [compound 548644]” as the substance, how does the “% inhibition” value [10] read?
**A.** 14%

**Q.** How did the “% inhibition” value [7] turn out when “548393 (e[5mC]*eG*k[5mC]*dT*dT*d[5mC]*dA*dG*dG*dA*dA*dA*dG*k[5mC]*kG*eA; antisense) [compound 548393]” was run?
**A.** 26%

**Q.** With “548645 (antisense e[5mC]*e[5mC]*kA*dG*d[5mC]*dG*d[5mC]*dA*dA*dT*dT*d[5mC]*dT*kG*k[5mC]*eT) [compound 548645]” as the substance, how does the “% inhibition” value [10] read?
**A.** 8%

**Q.** Which “% inhibition” value [3] does the source give for “548136 (eG*eG*k[5mC]*dT*d[5mC]*dA*dG*dA*dA*dT*dT*dT*dG*kA*k[5mC]*eT; antisense) [compound 548136]” here?
**A.** 39%

**Q.** “547777 (antisense eT*eT*kG*d[5mC]*dT*dT*d[5mC]*dT*dT*dG*dG*dA*dG*kG*kT*eG) [compound 547777]” was tested. Which “% inhibition” value [5] did it give?
**A.** 69%

**Q.** For “548286 (antisense eG*eG*kG*dA*d[5mC]*dT*dA*d[5mC]*dA*dT*dG*d[5mC]*dA*kA*kT*eA) [compound 548286]”, which “% inhibition” value [4] is on record?
**A.** 47%

**Q.** With “548320 (eG*e[5mC]*kA*d[5mC]*dA*d[5mC]*dA*dG*dA*d[5mC]*dT*dT*dG*k[5mC]*k[5mC]*e[5mC]; antisense) [compound 548320]” as the substance, how does the “% inhibition” value [2] read?
**A.** 0%

**Q.** For “548112 (antisense eG*eT*kG*dA*d[5mC]*dT*dG*d[5mC]*dA*dT*d[5mC]*dT*dG*kA*kG*e[5mC]) [compound 548112]”, which “% inhibition” value [3] is on record?
**A.** 23%

**Q.** What does the source list for “547868 (antisense eA*e[5mC]*k[5mC]*dT*dT*dA*dG*dA*d[5mC]*dA*d[5mC]*dA*dT*kT*kA*eA) [compound 547868]”?
**A.** % inhibition (Table 20, HepaRG cells, electroporation with 1,000 nM antisense oligonucleotide, approximately 24 hours, PKK mRNA by RT-PCR (RTS3454), relative to untreated control cells): 47%; % inhibition (Table 22 experiment, HepaRG cells, electroporation with 1,000 nM antisense oligonucleotide, approx. 24 hours, PKK mRNA by RT-PCR (RTS3454), relative to untreated control cells): 71%

**Q.** “548520 (antisense e[5mC]*e[5mC]*kG*d[5mC]*dT*dT*d[5mC]*d[5mC]*d[5mC]*dT*dG*dA*d[5mC]*kT*kG*eT) [compound 548520]” was tested. Which “% inhibition” value [6] did it give?
**A.** 43%

**Q.** “548238 (eA*e[5mC]*kT*d[5mC]*dG*d[5mC]*d[5mC]*dT*dT*dT*dG*dT*dG*kA*k[5mC]*eT; antisense) [compound 548238]” was tested. Which “% inhibition” value [4] did it give?
**A.** 31%

**Q.** How did the “% inhibition” value [7] turn out when “548445 (antisense e[5mC]*e[5mC]*kT*dA*dT*dG*dT*d[5mC]*dA*d[5mC]*dT*dG*dT*kA*k[5mC]*e[5mC]) [compound 548445]” was run?
**A.** 62%

**Q.** With “548383 (eG*eT*k[5mC]*dT*d[5mC]*dG*dA*dT*dG*dG*d[5mC]*dA*dA*kG*k[5mC]*eT; antisense) [compound 548383]” as the substance, how does the “% inhibition” value [7] read?
**A.** 49%

**Q.** How did the “% inhibition” value [8] turn out when “548206 (eG*eG*kT*d[5mC]*dA*dA*dT*d[5mC]*dT*dG*dA*d[5mC]*dT*kA*kG*eT; antisense) [compound 548206]” was run?
**A.** 45%

**Q.** How did the “% inhibition” value [3] turn out when “548092 (antisense eT*eT*kG*d[5mC]*dA*dA*dA*d[5mC]*dT*dA*dA*dG*dG*kG*kA*e[5mC]) [compound 548092]” was run?
**A.** 30%

**Q.** With “548105 (antisense e[5mC]*eA*kT*dG*dT*dA*d[5mC]*dT*d[5mC]*dA*dG*d[5mC]*dG*kA*k[5mC]*eT) [compound 548105]” as the substance, how does the “% inhibition” value [3] read?
**A.** 49%

**Q.** With “548309 (eA*eG*kA*d[5mC]*dA*dG*dT*dT*dG*dG*dT*dG*dG*kT*kT*eT; antisense) [compound 548309]” as the substance, how does the “% inhibition” value [2] read?
**A.** 41%

**Q.** How did the “% inhibition” value (HepaRG cells, electroporation with 1,000 nM antisense oligonucleotide, approximately 24 hours, primer probe set RTS3454, relative to untreated control cells, experiment of Table 23) turn out when “547928 (eG*eA*kT*dG*dG*dT*d[5mC]*d[5mC]*dG*dA*d[5mC]*dA*d[5mC]*kA*k[5mC]*eA; antisense) [compound 547928]” was run?
**A.** 70%

**Q.** How did the “% inhibition” value [9] turn out when “548568 (eA*eT*kT*dG*dA*d[5mC]*dA*dA*d[5mC]*d[5mC]*dA*dT*d[5mC]*k[5mC]*kT*eA; antisense) [compound 548568]” was run?
**A.** 27%
